Values after ≈ are worked out from the molar mass of the structure shown.
What was measured:
Assay type in all cases: functional
Enterococcus faecium [1] = assay: Antibacterial activity against antibiotic-susceptile Enterococcus faecium ATCC 49624 after 18 hrs by brain heart infusion broth microdilution method; conditions: ATCC 49624, 18 h
Enterococcus faecium [2] = assay: Antibacterial activity against vancomycin-resistant Enterococcus faecium ATCC 700221 after 18 hrs by brain heart infusion broth microdilution method; conditions: ATCC 700221, 18 h
Bacillus subtilis = assay: Antibacterial activity against Bacillus subtilis 168 after 18 hrs by Mueller-Hinton broth microdilution method; conditions: subsp. subtilis str. 168, 18 h
Staphylococcus aureus [3] = assay: Antibacterial activity against Staphylococcus aureus ATCC 29213 after 18 hrs by cation adjusted Mueller-Hinton broth microdilution method; conditions: ATCC 29213, 18 h
Staphylococcus aureus [4] = assay: Antibacterial activity against methicillin-resistant Staphylococcus aureus ATCC BAA41 after 18 hrs by cation adjusted Mueller-Hinton broth microdilution method; conditions: ATCC BAA41, 18 h
Escherichia coli [5] = assay: Antibacterial activity against Escherichia coli ATCC 25922 after 18 hrs by Mueller-Hinton broth microdilution method; conditions: ATCC 25922, 18 h
Escherichia coli [6] = assay: Antibacterial activity against Escherichia coli ATCC […] expressing NDM-1 beta-lactamase after 18 hrs by Mueller-Hinton broth microdilution method
Pseudomonas aeruginosa = assay: Antibacterial activity against multidrug-resistant Pseudomonas aeruginosa ATCC BAA2108 after 18 hrs by Mueller-Hinton broth microdilution method; conditions: ATCC BAA2108, 18 h
Klebsiella pneumoniae = assay: Antibacterial activity against Klebsiella pneumoniae ATCC BAA2470 expressing NDM-1 beta-lactamase after 18 hrs by Mueller-Hinton broth microdilution method; conditions: ATCC BAA2470, 18 h

Structure (SMILES)	MIC (Enterococcus faecium [1])	MIC (Enterococcus faecium [2])	MIC (Bacillus subtilis)	MIC (Staphylococcus aureus [3])	MIC (Staphylococcus aureus [4])	MIC (Escherichia coli [5])	MIC (Escherichia coli [6])	MIC (Pseudomonas aeruginosa)	MIC (Klebsiella pneumoniae)
C[n+]1c2ccccc2c(Nc2ccc(Cl)cc2)c2[nH]c3ccccc3c21.[I-]	6 µg/mL	6 µg/mL	4 µg/mL	4 µg/mL	4 µg/mL	8 µg/mL	8 µg/mL	64 µg/mL	64 µg/mL
Cc1ccc(Nc2c3ccccc3[n+](C)c3c2oc2ccccc23)cc1.[I-]	8 µg/mL	8 µg/mL	6 µg/mL	6 µg/mL	6 µg/mL	12 µg/mL	12 µg/mL	> 64 µg/mL	> 64 µg/mL
CCc1ccc(Nc2c3ccccc3[n+](C)c3c2[nH]c2ccccc23)cc1.[I-]	6 µg/mL	6 µg/mL	4 µg/mL	4 µg/mL	4 µg/mL	8 µg/mL	8 µg/mL	64 µg/mL	64 µg/mL
C[n+]1c2ccccc2c(Nc2cccc(F)c2)c2[nH]c3ccccc3c21.[I-]	6 µg/mL	6 µg/mL	6 µg/mL	6 µg/mL	6 µg/mL	12 µg/mL	12 µg/mL	> 64 µg/mL	> 64 µg/mL
Cc1ccc(Nc2c3ccccc3[n+](C)c3c2oc2ccccc23)cc1F.[I-]	8 µg/mL	8 µg/mL	6 µg/mL	6 µg/mL	6 µg/mL	12 µg/mL	12 µg/mL	> 64 µg/mL	> 64 µg/mL
C[n+]1c2ccccc2c(Nc2ccccc2)c2[nH]c3ccccc3c21.[I-]	8 µg/mL	8 µg/mL	6 µg/mL	6 µg/mL	6 µg/mL	12 µg/mL	12 µg/mL	> 64 µg/mL	> 64 µg/mL
CCOc1ccccc1Nc1c2ccccc2[n+](C)c2c1[nH]c1ccccc12.[I-]	6 µg/mL	6 µg/mL	4 µg/mL	4 µg/mL	4 µg/mL	8 µg/mL	8 µg/mL	64 µg/mL	64 µg/mL
C[n+]1c2ccccc2c(Nc2ccc(F)cc2F)c2oc3ccccc3c21.[I-]	8 µg/mL	8 µg/mL	6 µg/mL	6 µg/mL	6 µg/mL	12 µg/mL	12 µg/mL	> 64 µg/mL	> 64 µg/mL
Cc1ccc(Nc2c3ccccc3[n+](C)c3c2[nH]c2ccccc23)cc1.[I-]	6 µg/mL	6 µg/mL	4 µg/mL	4 µg/mL	4 µg/mL	8 µg/mL	8 µg/mL	64 µg/mL	64 µg/mL
C[n+]1c2ccccc2c(Nc2ccc(F)cc2)c2oc3ccccc3c21.[I-]	8 µg/mL	8 µg/mL	6 µg/mL	6 µg/mL	6 µg/mL	12 µg/mL	12 µg/mL	> 64 µg/mL	> 64 µg/mL
C[n+]1c2ccccc2c(Nc2ccc(F)cc2F)c2[nH]c3ccccc3c21.[I-]	8 µg/mL	8 µg/mL	4 µg/mL	4 µg/mL	4 µg/mL	8 µg/mL	8 µg/mL	64 µg/mL	64 µg/mL
CCOc1ccc(Nc2c3ccccc3[n+](C)c3c2[nH]c2ccccc23)cc1.[I-]	4 µg/mL	4 µg/mL	2 µg/mL	2 µg/mL	2 µg/mL	6 µg/mL	6 µg/mL	48 µg/mL	48 µg/mL
C[n+]1c2ccccc2c(Nc2ccc(Cl)cc2)c2oc3ccccc3c21.[I-]	8 µg/mL	8 µg/mL	6 µg/mL	6 µg/mL	6 µg/mL	12 µg/mL	12 µg/mL	> 64 µg/mL	> 64 µg/mL
CCc1ccc(Nc2c3ccccc3[n+](C)c3c2oc2ccccc23)cc1.[I-]	8 µg/mL	8 µg/mL	6 µg/mL	6 µg/mL	6 µg/mL	12 µg/mL	12 µg/mL	> 64 µg/mL	> 64 µg/mL
COc1ccccc1Nc1c2ccccc2[n+](C)c2c1[nH]c1ccccc12.[I-]	8 µg/mL	8 µg/mL	4 µg/mL	4 µg/mL	4 µg/mL	8 µg/mL	8 µg/mL	64 µg/mL	64 µg/mL
Cc1cc(C)cc(Nc2c3ccccc3[n+](C)c3c2[nH]c2ccccc23)c1.[I-]	8 µg/mL	8 µg/mL	4 µg/mL	4 µg/mL	4 µg/mL	8 µg/mL	8 µg/mL	> 64 µg/mL	> 64 µg/mL

Structure (SMILES)	MIC (Enterococcus faecium [1])	MIC (Enterococcus faecium [2])	MIC (Bacillus subtilis)	MIC (Staphylococcus aureus [3])	MIC (Staphylococcus aureus [4])	MIC (Escherichia coli [5])	MIC (Escherichia coli [6])	MIC (Pseudomonas aeruginosa)	MIC (Klebsiella pneumoniae)
Cc1ccccc1Nc1c2ccccc2[n+](C)c2c1oc1ccccc12.[I-]	12 µg/mL	12 µg/mL	8 µg/mL	8 µg/mL	8 µg/mL	16 µg/mL	16 µg/mL	> 64 µg/mL	> 64 µg/mL
Cc1cc(F)ccc1Nc1c2ccccc2[n+](C)c2c1[nH]c1ccccc12.[I-]	8 µg/mL	8 µg/mL	4 µg/mL	4 µg/mL	4 µg/mL	8 µg/mL	8 µg/mL	64 µg/mL	64 µg/mL
COc1ccccc1Nc1c2ccccc2[n+](C)c2c1oc1ccccc12.[I-]	8 µg/mL	8 µg/mL	6 µg/mL	6 µg/mL	6 µg/mL	12 µg/mL	12 µg/mL	> 64 µg/mL	> 64 µg/mL
COc1ccc2cc3[n+](cc2c1OC)CCc1cc2c(cc1-3)OCO2.[Cl-] [BERBERINE CHLORIDE]	> 192 µg/mL	> 192 µg/mL	128 µg/mL	128 µg/mL	192 µg/mL	> 192 µg/mL	> 192 µg/mL	> 192 µg/mL	> 192 µg/mL
COc1cccc(OC)c1C(=O)N[C@@H]1C(=O)N2[C@@H]1SC(C)(C)[C@@H]2C(=O)O [METHICILLIN]			0.5 µg/mL (≈ 1.31 µM)	1 µg/mL (≈ 2.63 µM)	> 192 µg/mL	4 µg/mL (≈ 10.5 µM)	> 192 µg/mL	> 192 µg/mL	> 192 µg/mL
C[n+]1c2ccccc2c(Nc2ccc(F)cc2)c2[nH]c3ccccc3c21.[I-]	8 µg/mL	8 µg/mL	4 µg/mL	4 µg/mL	4 µg/mL	8 µg/mL	8 µg/mL	64 µg/mL	64 µg/mL
Cc1cc(F)ccc1Nc1c2ccccc2[n+](C)c2c1oc1ccccc12.[I-]	8 µg/mL	8 µg/mL	6 µg/mL	6 µg/mL	6 µg/mL	12 µg/mL	12 µg/mL	> 64 µg/mL	> 64 µg/mL
Cc1ccc(Nc2c3ccccc3[n+](C)c3c2[nH]c2ccccc23)cc1F.[I-]	8 µg/mL	8 µg/mL	4 µg/mL	4 µg/mL	4 µg/mL	8 µg/mL	8 µg/mL	64 µg/mL	64 µg/mL
Cc1ccccc1Nc1c2ccccc2[n+](C)c2c1[nH]c1ccccc12.[I-]	8 µg/mL	8 µg/mL	6 µg/mL	6 µg/mL	6 µg/mL	12 µg/mL	12 µg/mL	> 64 µg/mL	> 64 µg/mL
Cc1ccc(Nc2c3ccccc3[n+](C)c3c2[nH]c2ccccc23)cc1C.[I-]	8 µg/mL	8 µg/mL	4 µg/mL	4 µg/mL	4 µg/mL	8 µg/mL	8 µg/mL	> 64 µg/mL	> 64 µg/mL
C[n+]1c2ccccc2c(Nc2ccccc2)c2oc3ccccc3c21.[I-]	12 µg/mL	12 µg/mL	8 µg/mL	8 µg/mL	8 µg/mL	16 µg/mL	16 µg/mL	> 64 µg/mL	> 64 µg/mL
CCOc1ccc(Nc2c3ccccc3[n+](C)c3c2oc2ccccc23)cc1.[I-]	8 µg/mL	8 µg/mL	4 µg/mL	4 µg/mL	4 µg/mL	8 µg/mL	8 µg/mL	64 µg/mL	64 µg/mL
C[n+]1c2ccccc2c(Nc2ccc(OC(F)(F)F)cc2)c2[nH]c3ccccc3c21.[I-]	4 µg/mL	4 µg/mL	2 µg/mL	2 µg/mL	2 µg/mL	6 µg/mL	6 µg/mL	48 µg/mL	48 µg/mL
C[n+]1c2ccccc2c(Nc2ccc(OC(F)(F)F)cc2)c2oc3ccccc3c21.[I-]	6 µg/mL	6 µg/mL	4 µg/mL	4 µg/mL	4 µg/mL	8 µg/mL	8 µg/mL	64 µg/mL	64 µg/mL
CN[C@H](CC(C)C)C(=O)N[C@H]1C(=O)N[C@@H](CC(N)=O)C(=O)N[C@H]2C(=O)N[C@H]3C(=O)N[C@H](C(=O)N[C@H](C(=O)O)c4cc(O)cc(O)c4-c4cc3ccc4O)[C@H](O)c3ccc(c(Cl)c3)Oc3cc2cc(c3O[C@@H]2O[C@H](CO)[C@@H](O)[C@H](O)[C@H]2O[C@H]2C[C@](C)(N)[C@H](O)[C@H](C)O2)Oc2ccc(cc2Cl)[C@H]1O [VANCOMYCIN]		> 64 µg/mL	1 µg/mL (≈ 0.69 µM)			2 µg/mL (≈ 1.38 µM)	6 µg/mL (≈ 4.14 µM)	> 64 µg/mL	> 64 µg/mL

Reference: ChEMBL document CHEMBL4052617, “Antibacterial activity of N-methylbenzofuro[3,2-b]quinoline and N-methylbenzoindolo[3,2-b]-quinoline derivatives and study of their mode of action” (2017)
